Results from patent US9526721B2, “Tetrahydroprotoberbine compounds and uses thereof in the treatment of neurological, psychiatric and neurodegenerative diseases” (priority 2012, dated 2016).

Columns and labels:
rats [1] = test: Temporal order recognition (radial arm maze); conditions: for Arm Entries / Distance Travelled: 1.0 mg/kg govadine isomers, 5.0 mg/kg clozapine; for temporal order effect: injected 15 min before test trial
Procedure: The task exploits a rat's natural preference for novel locations. Each animal received 3 separate trials where access to two arms of an eight arm radial arm maze was granted. During the first trial, two arms were selected at random for exploration, and animals were allowed to explore these arms for 2 min After this time, they were taken off the maze and returned to their home cage. 1 hour later they were placed back on the maze and two new arms were randomly selected for 2 min of exploration.
Time spent in each arm (recent and old) was recorded as well as total distance traveled and the total number of arm entries in Noldus EthoVision 3.1 (Leesburg, Va.).

rats [2] = test: Microdialysis of prefrontal cortex and nucleus accumbens; conditions: for 5-HIAA in NAc / DOPAC in NAc / HVA in NAc / dopamine level in NAc / 5-HIAA in PFC / DOPAC in PFC / HVA in PFC / dopamine level in PFC: microdialysis; for 5-HIAA in NAc / DOPAC in NAc / HVA in NAc / dopamine level in NAc: nucleus accumbens; for 5-HIAA in PFC / DOPAC in PFC / HVA in PFC / dopamine level in PFC: prefrontal cortex;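 as to all read-outs here: dialysate collected every 10 min from freely moving rats, analysed by HPLC with electrochemical detection, after four stable baseline samples (under 10% variation) preceding drug dosing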
Procedure: Rats received subcutaneous injections of an analgesic (ketoprofen 0.05 mL or buprenorphine, 0.1 mL) and sterile saline (0.9% NaCl, ˜3 mL). Once shaved and cleaned, the heads were secured in the stereotaxic frame in flat skull position for bilateral implantation of stainless steel microdialysis guide cannulae (19 gauge×15 mm) in the nucleus accumbens (NAc) (from bregma +1.7 mm anterior and ±1.1 mm medial; from dura −1.0 mm ventral) or medial prefrontal cortex (mPFC) (+3.0 mm anterior, ±0.6 mm medial; −1.0 mm ventral). […] Rats were allowed to rest with heat support until they regained consciousness, and then given a one-week recovery period.
Microdialysis probes were assembled 1-2 days prior to microdialysis experiments. Probes were concentric in design, constructed from Filtral 12 AN69HF semi-permeable hollow fibres (2 mm length, 340 μm OD×4 mm, 65 kDalton molecular weight cut-off; Hospal, Neurnberg, Germany) and silica inlet-outlet lines (75/150 um ID/OD).
The day prior to microdialysis experiments, probes were connected to an Instech dual-channel liquid swivel (Plymouth Meeting, Pa.) and flushed with artificial cerebrospinal fluid (aCSF). […] Following DA recovery tests, probes were implanted via the guide cannulae (dialysis membrane spanned −4.8 to −6.8 mm ventrally for NAc; −1.6 to −3.6 mm for mPFC). Rats remained in the testing chamber overnight (14-16 hr) with aCSF perfusing continuously through the probes at 1 μL/min In the morning, microdialysis samples were collected at 10 min intervals and assayed for DA, DOPAC, homovanillic acid (HVA) and 5-HIAA content. Once baseline levels were determined to be stable for four consecutive samples (less than 10% fluctuation), the drug treatment phase of each experiment was initiated.
Microdialysis samples were analyzed immediately after collection using high pressure liquid chromatography (HPLC) with electrochemical detection. […] The mobile phase [70 mM sodium acetate buffer, 40 mg/L EDTA and 50 mg/L of sodium dodecyl sulfate (adjustable), pH 4.0, 10% methanol] flowed through the system at 0.17 mL/min EZChrome Elite software (Scientific Software, Pleasanton, Calif.) was used to acquire and analyze chromatographic data.
After the experiments, rats were deeply anesthetized, brains were removed and stored in 20% w/v sucrose and 4% v/v paraformaldehyde. Brains were sliced into 50 um coronal sections, stained with cresyl violet and examined for probe placement.
Microdialysis probes (2 mm active membrane) were implanted in the NAc and mPFC ˜16 hrs prior to start of the experiment and continuously perfused aCSF.

rats [3] = test: Social interaction in NVHL and sham rats; type: in vivo, rat; conditions: 1.0 mg/kg IP 15 minutes prior to testing
Source text: Experimental rats were neonatal ventral hippocampal lesioned (NVHL) and control (Sham) animals. […] The SI environment consisted of a 83×90×30 cm open field with each surface painted black.

5HT3 = target: T1, 5HT3 (Homo sapiens, UniProt P46098); test: Receptor binding, 5HT3; conditions: CHO cells
T1 construct: host or cells: CHO cells
T1 sequence (P46098 24-478): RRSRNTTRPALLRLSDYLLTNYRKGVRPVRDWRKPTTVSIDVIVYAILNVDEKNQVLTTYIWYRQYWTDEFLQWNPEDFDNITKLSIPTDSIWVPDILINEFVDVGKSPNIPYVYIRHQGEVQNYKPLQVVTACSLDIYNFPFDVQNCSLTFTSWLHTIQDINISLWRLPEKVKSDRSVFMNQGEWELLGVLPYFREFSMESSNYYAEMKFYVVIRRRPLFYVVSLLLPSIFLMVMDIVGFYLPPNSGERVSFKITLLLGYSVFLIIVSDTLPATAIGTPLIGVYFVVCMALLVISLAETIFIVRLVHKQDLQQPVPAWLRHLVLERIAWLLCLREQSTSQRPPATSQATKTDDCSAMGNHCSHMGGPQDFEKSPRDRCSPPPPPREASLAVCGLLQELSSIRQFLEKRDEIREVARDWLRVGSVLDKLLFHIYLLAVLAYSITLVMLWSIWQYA
Procedure: (§1) All receptors tested were heterologously expressed CHO cells and IC50 values were determined by a non-linear, least squares regression analysis using MathIQ (ID Business Solution Ltd, UK). Ki was calculated using the equation of Cheng and Prusoff (1973, Biochem. Pharmacol 22:23099-3108) derived from the observed IC50 of the tested compound, the concentration of radioligand employed in the assay, and the historical values for the Kd of the ligand (obtained experimentally at MDS Pharma Services).

5HT2C = target: T2, 5HT2C (Homo sapiens, UniProt P28335); test: Receptor binding, 5HT2C; conditions: receptor expressed in CHO cells
T2 construct: host or cells: CHO cells
T2 sequence (P28335 33-458): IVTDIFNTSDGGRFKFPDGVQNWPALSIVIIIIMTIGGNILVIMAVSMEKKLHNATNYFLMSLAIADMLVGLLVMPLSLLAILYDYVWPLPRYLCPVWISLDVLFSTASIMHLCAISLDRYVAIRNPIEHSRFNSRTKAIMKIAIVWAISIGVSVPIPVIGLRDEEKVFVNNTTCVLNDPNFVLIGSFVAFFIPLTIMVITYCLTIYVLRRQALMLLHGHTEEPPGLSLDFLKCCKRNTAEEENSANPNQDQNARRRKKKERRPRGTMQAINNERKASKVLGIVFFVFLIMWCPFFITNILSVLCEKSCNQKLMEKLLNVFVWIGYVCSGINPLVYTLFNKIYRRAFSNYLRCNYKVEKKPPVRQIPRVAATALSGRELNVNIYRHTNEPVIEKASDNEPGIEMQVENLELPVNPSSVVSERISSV
Procedure: as §1
as §1, with “receptors” for “receptors tested”, “UK). K1” for “UK). Ki”, “calculated (Y.” for “calculated using the equation of”, “Cheng &” for “Cheng and”, “Prusoff 1973)” for “Prusoff (1973, Biochem. Pharmacol 22:23099-3108) derived”

rats [4] = test: Catalepsy (bar test); type: in vivo, rat; conditions: SC; for catalepsy (immobilized contact time): across doses tested
Procedure: Testing occurred in a plexiglas box (28 cm×45 cm×20 cm) containing a horizontal steel bar located 8 cm above floor level. […] After injection animals were returned to the test box and catalepsy testing occurred at 1, 15, 30, and 45 minutes after injection. Testing at each time point lasted 2 min after the forepaws of each rat was placed on the bar. Behavior was recorded with a video camera (Cohu, Poway, Calif.) and scored off-line. The cumulative time spent immobilized with both forelimbs on the horizontal bar was scored for each 2 min test epoch. Videos selected at random were scored independently by a second observer and a high inter-rater reliability was observed (R^2=0.93, F=393.4, p<0.05).
Catalepsy testing was conducted as described in Example 12.

D2L = target: T3, D2L (Homo sapiens, UniProt P14416); test: Receptor binding, dopamine D2L; conditions: for Ki: receptor expressed in CHO cells, read-out: Ki, D2L
T3 construct: host or cells: CHO cells
Procedure: as §1
as §1, with “receptors” for “receptors tested”, “UK). K1” for “UK). Ki”, “calculated (Y.” for “calculated using the equation of”, “Cheng &” for “Cheng and”, “Prusoff 1973)” for “Prusoff (1973, Biochem. Pharmacol 22:23099-3108) derived”

5HT6 = target: T4, 5HT6 (Homo sapiens, UniProt P50406); test: Receptor binding, 5HT6; conditions: CHO cells
T4 construct: host or cells: CHO cells
Procedure: as §1

5HT4 = target: T5, 5HT4 (Homo sapiens, UniProt Q13639); test: Receptor binding, 5HT4
T5 construct: host or cells: CHO cells
Procedure: as §1

5HT2A = target: T6, 5HT2A (Homo sapiens, UniProt P28223); test: Receptor binding, 5HT2A; conditions: receptor expressed in CHO cells
T6 construct: host or cells: CHO cells
Procedure: as §1
as §1, with “receptors” for “receptors tested”, “UK). K1” for “UK). Ki”, “calculated (Y.” for “calculated using the equation of”, “Cheng &” for “Cheng and”, “Prusoff 1973)” for “Prusoff (1973, Biochem. Pharmacol 22:23099-3108) derived”

5HT1A = target: T7, 5HT1A (Homo sapiens, UniProt P08908); test: Receptor binding, 5HT1A; conditions: receptor expressed in CHO cells
T7 construct: host or cells: CHO cells
T7 sequence (P08908 1-422): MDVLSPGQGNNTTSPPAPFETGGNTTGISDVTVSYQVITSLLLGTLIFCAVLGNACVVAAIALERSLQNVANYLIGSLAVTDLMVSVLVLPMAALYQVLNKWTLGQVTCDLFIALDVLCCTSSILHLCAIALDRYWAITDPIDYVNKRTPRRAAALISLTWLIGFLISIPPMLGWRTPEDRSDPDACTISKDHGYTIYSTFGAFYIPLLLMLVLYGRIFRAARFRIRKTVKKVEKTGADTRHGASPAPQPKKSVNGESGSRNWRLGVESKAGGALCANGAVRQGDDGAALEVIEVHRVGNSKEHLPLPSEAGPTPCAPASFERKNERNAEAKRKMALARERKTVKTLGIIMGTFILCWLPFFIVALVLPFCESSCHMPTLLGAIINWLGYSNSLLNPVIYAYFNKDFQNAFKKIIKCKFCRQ
Procedure: as §1
as §1, with “receptors” for “receptors tested”, “UK). K1” for “UK). Ki”, “calculated (Y.” for “calculated using the equation of”, “Cheng &” for “Cheng and”, “Prusoff 1973)” for “Prusoff (1973, Biochem. Pharmacol 22:23099-3108) derived”

D1 = D1 (Homo sapiens, UniProt P21728); test: Receptor binding, dopamine D1; design: host or cells: CHO cells; conditions: for Ki: receptor expressed in CHO cells, read-out: Ki, D1
Procedure: as §1
as §1, with “receptors” for “receptors tested”, “UK). K1” for “UK). Ki”, “calculated (Y.” for “calculated using the equation of”, “Cheng &” for “Cheng and”, “Prusoff 1973)” for “Prusoff (1973, Biochem. Pharmacol 22:23099-3108) derived”

Sequence of D1 (P21728 whole entry): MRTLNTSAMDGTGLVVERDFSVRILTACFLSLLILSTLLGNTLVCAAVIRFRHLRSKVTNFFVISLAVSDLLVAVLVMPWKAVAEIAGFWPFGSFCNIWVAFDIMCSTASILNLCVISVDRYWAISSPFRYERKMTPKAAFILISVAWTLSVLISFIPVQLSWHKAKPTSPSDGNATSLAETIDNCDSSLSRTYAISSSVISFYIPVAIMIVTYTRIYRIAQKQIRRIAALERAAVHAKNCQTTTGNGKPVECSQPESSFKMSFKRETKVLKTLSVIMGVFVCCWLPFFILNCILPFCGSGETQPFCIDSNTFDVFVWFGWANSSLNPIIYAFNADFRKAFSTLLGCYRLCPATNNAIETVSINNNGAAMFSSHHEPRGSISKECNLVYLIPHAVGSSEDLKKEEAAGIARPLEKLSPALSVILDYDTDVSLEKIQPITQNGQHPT
T3 sequence (P14416 whole entry): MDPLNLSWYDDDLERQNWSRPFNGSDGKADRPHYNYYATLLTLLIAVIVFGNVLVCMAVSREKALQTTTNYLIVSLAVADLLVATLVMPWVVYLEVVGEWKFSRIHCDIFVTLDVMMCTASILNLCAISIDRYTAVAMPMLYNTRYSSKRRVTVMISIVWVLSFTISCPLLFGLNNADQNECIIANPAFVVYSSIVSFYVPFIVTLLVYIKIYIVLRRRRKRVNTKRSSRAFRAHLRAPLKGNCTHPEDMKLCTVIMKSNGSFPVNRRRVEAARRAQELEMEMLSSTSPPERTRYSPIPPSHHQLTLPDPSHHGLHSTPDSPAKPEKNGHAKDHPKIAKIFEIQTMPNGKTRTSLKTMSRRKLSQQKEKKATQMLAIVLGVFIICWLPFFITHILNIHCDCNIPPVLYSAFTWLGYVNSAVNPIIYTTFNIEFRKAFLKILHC
T4 sequence (P50406 whole entry, species assumed): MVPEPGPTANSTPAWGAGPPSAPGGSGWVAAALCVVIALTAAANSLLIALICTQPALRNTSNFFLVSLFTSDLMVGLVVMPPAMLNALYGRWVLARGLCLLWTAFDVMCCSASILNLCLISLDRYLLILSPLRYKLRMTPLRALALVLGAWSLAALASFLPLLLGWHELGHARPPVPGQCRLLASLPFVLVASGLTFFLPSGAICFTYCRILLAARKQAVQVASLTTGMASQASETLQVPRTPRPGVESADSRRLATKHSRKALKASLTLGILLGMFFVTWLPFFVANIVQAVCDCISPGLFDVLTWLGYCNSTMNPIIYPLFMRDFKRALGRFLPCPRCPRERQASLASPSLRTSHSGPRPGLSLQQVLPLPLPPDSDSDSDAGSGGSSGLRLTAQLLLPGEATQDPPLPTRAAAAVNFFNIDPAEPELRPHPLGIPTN
T6 sequence (P28223 whole entry, species assumed): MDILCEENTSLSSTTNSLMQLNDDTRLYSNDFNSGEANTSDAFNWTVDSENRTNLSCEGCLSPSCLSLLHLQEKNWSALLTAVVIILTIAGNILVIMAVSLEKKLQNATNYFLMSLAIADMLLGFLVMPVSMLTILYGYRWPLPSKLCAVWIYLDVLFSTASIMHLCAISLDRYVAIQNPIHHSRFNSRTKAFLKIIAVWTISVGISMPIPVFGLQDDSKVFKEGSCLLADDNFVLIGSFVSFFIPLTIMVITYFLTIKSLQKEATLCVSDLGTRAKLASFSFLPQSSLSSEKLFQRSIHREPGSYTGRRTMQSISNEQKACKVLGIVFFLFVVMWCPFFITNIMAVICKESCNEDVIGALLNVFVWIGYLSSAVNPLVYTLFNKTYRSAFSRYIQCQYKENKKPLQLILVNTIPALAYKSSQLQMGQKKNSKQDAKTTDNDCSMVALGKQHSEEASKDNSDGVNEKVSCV
T5 sequence (Q13639 whole entry, species assumed): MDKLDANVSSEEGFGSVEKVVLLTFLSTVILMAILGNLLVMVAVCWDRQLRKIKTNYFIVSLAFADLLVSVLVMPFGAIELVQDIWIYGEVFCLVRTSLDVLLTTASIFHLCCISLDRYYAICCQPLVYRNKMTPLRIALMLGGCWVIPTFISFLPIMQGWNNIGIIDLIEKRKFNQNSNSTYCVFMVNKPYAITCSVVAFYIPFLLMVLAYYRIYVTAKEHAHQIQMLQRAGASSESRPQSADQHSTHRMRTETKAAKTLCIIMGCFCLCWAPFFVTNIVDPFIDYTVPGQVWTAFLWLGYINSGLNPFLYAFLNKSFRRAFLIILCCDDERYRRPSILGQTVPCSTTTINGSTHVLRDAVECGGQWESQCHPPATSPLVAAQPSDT

Structure (SMILES) | Arm Entries (rats [1]; 45 min. delay) | Distance Travelled (rats [1]; 45 min. delay) | temporal order effect (rats [1]; 45 min delay) | temporal order effect (rats [1]; 4 hr delay) | Arm Entries (rats [1]; 4 hr. delay) | Distance Travelled (rats [1]; 4 hr. delay) | 5-HIAA in NAc (rats [2]) | DOPAC in NAc (rats [2]) | HVA in NAc (rats [2]) | dopamine level in NAc (rats [2]) | 5-HIAA in PFC (rats [2]) | DOPAC in PFC (rats [2]) | HVA in PFC (rats [2]) | dopamine level in PFC (rats [2]) | social interaction in NVHL rats versus Sham controls (rats [3]) | inhibition at 10 µM (5HT3) | Ki (5HT2C) | catalepsy (immobilized contact time) (rats [4]) | binding affinity to the D2 receptor (D2L) | Ki (D2L) | further results
COc1cc2c(cc1O)CN1CCc3cc(OC)c(O)cc3[C@H]1C2 [d-govadine] | 14.8 ± 1.9 | 2433 ± 363 | abolished | restored temporal order recognition | 11 ± 1.1 | 2091 ± 114 | not the NAc | no increase observed | no increase observed | not in the NAc | increased | increased | increased | selectively increased | comparable levels of SI | -8% | 46.5 µM | No evidence of catalepsy | weak affinity | 1340 nM | inhibition at 10 µM (5HT6): 9%; inhibition at 10 µM (5HT4; 10 μM, CHO cells): 42%; Ki (5HT2A): 11.8 µM; Ki (5HT1A): 18.2 µM; binding affinity to the D1 receptor (D1): strong binding affinity; Ki (D1): 8.75 nM
COc1cc2c(cc1O)CN1CCc3cc(OC)c(O)cc3[C@@H]1C2 [l-govadine] | 3.67 ± 1.9 | 587.7 ± 109 | abolished | no temporal order effect | 3.5 ± 0.9 | 824 ± 135 | No increase | increase | increase | increased | No increase | increase | increase | increased | comparable levels of SI | 5% | 45.2 µM | Catalepsy was observed | strong affinity | 165 nM | DA efflux in NAc and mPFC compared to control (rats [2]; 1 mg/kg, Example 15): enhanced DA efflux; time of peak cataleptic behavior post injection (rats [4]): 15 min; inhibition at 10 µM (5HT6): 12%; Ki (5HT4; receptor expressed in CHO cells): 2470 nM; Ki (5HT2A): 11.1 µM; Ki (5HT1A): 15.2 µM; binding affinity to the D1 receptor (D1): strong affinity; Ki (D1): 5.77 nM
